In patent US11286268B1, “EIF4E-inhibiting compounds and methods” (EFFECTOR THERAPEUTICS, INC., priority 2019, dated 2022):

Biological target: recombinant eIF4E (Homo sapiens (Human), UniProt P06730)
Test: Fluorescence polarization competition assay for eIF4E binding potency
Details: inhibition of eIF4E/EDA-m7GDP-ATTO-550 binding; calculated IC50 values, Table 4B; read-out: IC50
Method in brief: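 FP readout; IC50 fit from 8-point, 3-fold series. 75 nM eIF4E + 20 nM ATTO-550-labelled m7GDP probe, Tris pH 7.5/NaCl/DTT/Tween buffer, 1% DMSO final. 30 min RT equilibration, light-protected.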

recombinant eIF4E, sequence (P06730 whole entry): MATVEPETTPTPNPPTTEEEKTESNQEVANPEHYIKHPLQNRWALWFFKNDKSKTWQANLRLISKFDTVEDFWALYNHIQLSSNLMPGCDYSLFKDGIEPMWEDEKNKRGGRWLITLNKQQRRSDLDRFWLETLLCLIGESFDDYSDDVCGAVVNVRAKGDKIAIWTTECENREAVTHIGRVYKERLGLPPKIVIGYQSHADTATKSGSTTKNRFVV

SMILES	IC50 [nM]
Cc1nc2cnc(N(C)C3CCN(CC(F)(F)F)CC3)c(C#N)c2c(=O)n1CC#Cc1ccc(Cl)cc1-c1ccnc2c(C(=O)NS(=O)(=O)c3ccccc3)csc12 [compound 1548]	36.2
Cc1ccccc1S(=O)(=O)NC(=O)c1csc2c(-c3cc(Cl)ccc3C#CCn3c(C)nc4cnc(N(C)C5CCN(CC(F)(F)F)CC5)c(C#N)c4c3=O)ccnc12 [compound 1549]	26.2
Cc1nc2cnc(N(C)C3CCN(CC(F)(F)F)CC3)c(C#N)c2c(=O)n1CC#Cc1ccc(Cl)cc1-c1ccnc2c(C(=O)NS(=O)(=O)c3ccc(F)cc3F)csc12 [compound 1550]	22.9
Cc1nc2cnc(N3CCC(N(CC(F)F)C4COC4)CC3)c(C#N)c2c(=O)n1CC#Cc1ccc(Cl)cc1-c1ccnc2c(C(=O)O)csc12 [compound 1553]	12.9
Cc1nc2cnc(N(C)C3CCN(CC(F)(F)c4ccccc4)CC3)c(C#N)c2c(=O)n1CC#Cc1ccc(Cl)cc1-c1ccnc2c(C(=O)O)csc12 [compound 1555]	23.9
Cc1nc2cnc(N3CC[C@H]4CN(CC(F)F)CC[C@H]43)c(C#N)c2c(=O)n1CC#Cc1ccc(Cl)cc1-c1ccnc2c(C(=O)O)csc12 [compound 1556]	49.9
Cc1nc2cnc(N(C)C3CCN(CC(F)F)CC3)c(C#N)c2c(=O)n1C(C)C#Cc1ccc(Cl)cc1-c1ccnc2c(C(=O)O)csc12 (stereo not drawn) [compound 1557]	6.77
Cc1nc2cnc(-c3cccc4c3CCN(CC(F)F)C4)c(C#N)c2c(=O)n1CC#Cc1ccc(Cl)cc1-c1ccnc2c(C(=O)O)csc12 [compound 1558]	69
Cc1nc2cnc(-c3cccc(CN(C)CC(F)F)c3)c(C#N)c2c(=O)n1CC#Cc1ccc(Cl)cc1-c1ccnc2c(C(=O)O)csc12 [compound 1559]	13.4
Cc1nc2cnc(N(C)C3CCN(CC(F)F)CC3)c(C#N)c2c(=O)n1CC#Cc1ccc(Cl)cc1-c1ccnc2c(C(=O)NO)csc12 [compound 1560]	6.31
Cc1nc2cnc(N(C)C3CCN(C4COC4)CC3)c(C#N)c2c(=O)n1CC#Cc1ccc(Cl)cc1-c1ccnc2c(C(=O)NS(C)(=O)=O)csc12 [compound 1561]	13
Cc1nc(N(C)C2CCN(CC(C)(F)F)CC2)c(C#N)c2c(=O)n(CCOc3ccc(Cl)cc3-c3ccnc4c(C(=O)O)csc34)c(C)nc12 [compound 1562]	16.8
Cc1cc(-c2cc(Cl)ccc2OCCn2c(C)nc3cnc(N(C)C4CCN(CC(C)(F)F)CC4)c(C#N)c3c2=O)c2scc(C(=O)O)c2n1 [compound 1563]	13
Cc1nc2cnc(N3CCC(N4CC(F)C4)CC3)c(C#N)c2c(=O)n1CC#Cc1ccc(Cl)cc1-c1ccnc2c(C(=O)O)csc12 [compound 1564]	10.6
Cc1nc2cnc(N(C)C3CCN(CC(F)F)CC3)c(C#N)c2c(=O)n1CC#Cc1ccc(Cl)cc1-c1ccnc2c(C(=O)NS(=O)(=O)c3ccccn3)csc12 [compound 1566]	4.39
Cc1nc2cnc(N(C)c3ccncc3)c(C#N)c2c(=O)n1CC#Cc1ccc(Cl)cc1-c1ccnc2c(C(=O)O)csc12 [compound 1569]	19.5
Cc1nc2cc(C(F)(F)F)c(N3CC4(C3)CN(C3CC3)C4)c(C#N)c2c(=O)n1CC#Cc1ccc(Cl)cc1-c1ccnc2c(C(=O)O)csc12 [compound 1570]	22.9
Cc1nc2cnc(C3CCCN(CC(F)F)C3)c(C#N)c2c(=O)n1CCCc1ccc(Cl)cc1-c1ccnc2c(C(=O)O)csc12 (stereo not drawn) [compound 1571]	20.5
Cc1nc2cnc(C(F)(F)C3CCN(CC(F)F)CC3)c(C#N)c2c(=O)n1CC#Cc1ccc(Cl)cc1-c1ccnc2c(C(=O)O)csc12 [compound 1572]	20

Next, values leading:

IC50 [nM]	SMILES
22.2	Cc1nc2cnc(C3=CCC(N(C)CC(F)F)CC3)c(C#N)c2c(=O)n1CC#Cc1ccc(Cl)cc1-c1ccnc2c(C(=O)O)csc12 (stereo not drawn) [compound 1573]
13.4	Cc1nc2cnc(C3CCCN(CC(F)F)C3)c(C#N)c2c(=O)n1CC#Cc1ccc(Cl)cc1-c1ccnc2c(C(=O)O)csc12 (stereo not drawn) [compound 1574]
14.7	Cc1nc2cnc(N(C)C3[C@@H]4CC[C@H]3CN(CC(C)(F)F)C4)c(C#N)c2c(=O)n1CC#Cc1ccc(Cl)cc1-c1ccnc2c(C(=O)O)csc12 (stereo partly drawn) [compound 1575]
17.9	Cc1nc2cnc(N(C)[C@@H]3[C@@H]4C[C@H]3CN(CC(C)(F)F)C4)c(C#N)c2c(=O)n1CC#Cc1ccc(Cl)cc1-c1ccnc2c(C(=O)O)csc12 [compound 1576]
13.3	Cc1nc2cnc(N(C)[C@H]3[C@@H]4C[C@H]3CN(CC(C)(F)F)C4)c(C#N)c2c(=O)n1CC#Cc1ccc(Cl)cc1-c1ccnc2c(C(=O)O)csc12 [compound 1577]
20.3	CCN(c1ncc2nc(C)n(CC#Cc3ccc(Cl)cc3-c3ccnc4c(C(=O)NS(C)(=O)=O)csc34)c(=O)c2c1C#N)C1CCN(C2COC2)CC1 [compound 1578]
30.3	Cc1nc2cnc(N(C)[C@H]3CC[C@H](N(CC(F)F)C(C)CO)CC3)c(C#N)c2c(=O)n1CC#Cc1ccc(Cl)cc1-c1ccnc2c(C(=O)O)csc12 (stereo partly drawn) [compound 1579]
14.3	Cc1nc2cnc(N(C)[C@@H]3CC[C@@H](N(C)CC(F)F)C3)c(C#N)c2c(=O)n1CC#Cc1ccc(Cl)cc1-c1ccnc2c(C(=O)O)csc12 [compound 1581]
19.2	Cc1nc2cnc(N(C)C3CCN(CC(F)(F)C4CC(F)(F)C4)CC3)c(C#N)c2c(=O)n1CC#Cc1ccc(Cl)cc1-c1ccnc2c(C(=O)O)csc12 [compound 1582]
58.2	Cc1nc2cnc(N(C)[C@H]3CC[C@H](CN(C)CC(C)(F)F)CC3)c(C#N)c2c(=O)n1CC#Cc1ccc(Cl)cc1-c1ccnc2c(C(=O)O)csc12 [compound 1583]
36.9	Cc1nc2cnc(N(C)C3CCN(CC4(CF)CCC4)CC3)c(C#N)c2c(=O)n1CC#Cc1ccc(Cl)cc1-c1ccnc2c(C(=O)O)csc12 [compound 1584]
15.2	Cc1nc2cnc(N(C)C3CCN(CC(F)(F)Cl)CC3)c(C#N)c2c(=O)n1CC#Cc1ccc(Cl)cc1-c1ccnc2c(C(=O)O)csc12 [compound 1585]
31.8	Cc1nc2cnc(N(C)C3CCN(CC(C)(C)C(F)(F)F)CC3)c(C#N)c2c(=O)n1CC#Cc1ccc(Cl)cc1-c1ccnc2c(C(=O)O)csc12 [compound 1586]
39.7	Cc1nc2cnc(N(C)C3CCN(CC4(C(F)(F)F)CC4)CC3)c(C#N)c2c(=O)n1CC#Cc1ccc(Cl)cc1-c1ccnc2c(C(=O)O)csc12 [compound 1587]
26.4	Cc1nc2cnc(N(C)C3CCN(CC4(C(F)(F)F)CCC4)CC3)c(C#N)c2c(=O)n1CC#Cc1ccc(Cl)cc1-c1ccnc2c(C(=O)O)csc12 [compound 1588]
12.4	Cc1nc2cnc(N(C)C3CCN(C4CC(F)(F)C4)CC3)c(C#N)c2c(=O)n1CC#Cc1ccc(Cl)cc1-c1ccnc2c(C(=O)NS(C)(=O)=O)csc12 [compound 1589]
36	Cc1nc2cnc(N(C)C3CCN(C4(C(F)F)COC4)CC3)c(C#N)c2c(=O)n1CC#Cc1ccc(Cl)cc1-c1ccnc2c(C(=O)NS(C)(=O)=O)csc12 [compound 1590]
36.2	Cc1nc2cnc(N3CCC(N(CC(F)F)C4COC4)CC3)c(C#N)c2c(=O)n1CC#Cc1ccc(Cl)cc1-c1ccnc2c(C(=O)NS(=O)(=O)CC(F)F)csc12 [compound 1591]
20.3	Cc1nc2cnc(N3CCC(N(C)C4CC(F)(F)C4)CC3)c(C#N)c2c(=O)n1CC#Cc1ccc(Cl)cc1-c1ccnc2c(C(=O)O)csc12 [compound 1592]
61.6	Cc1nc2cnc(N(C)C3CCN(CC(F)(F)F)CC3)c(C#N)c2c(=O)n1CC#Cc1ccc(Cl)cc1-c1ccnc2c(C(=O)NS(=O)(=O)CC(F)(F)F)csc12 [compound 1593]
